Data reported in the Kinase Knowledgebase extract (Sharma et al. 2016).
pIC50: −log10 of the molar value.

What follows are molecules tested against ROCK2 (human) (UniProt O75116) (assay: Inhibition of ROCK2 Kinase Activity). Conditions: not given.
ROCK2 (human), sequence (O75116 whole entry, looked up): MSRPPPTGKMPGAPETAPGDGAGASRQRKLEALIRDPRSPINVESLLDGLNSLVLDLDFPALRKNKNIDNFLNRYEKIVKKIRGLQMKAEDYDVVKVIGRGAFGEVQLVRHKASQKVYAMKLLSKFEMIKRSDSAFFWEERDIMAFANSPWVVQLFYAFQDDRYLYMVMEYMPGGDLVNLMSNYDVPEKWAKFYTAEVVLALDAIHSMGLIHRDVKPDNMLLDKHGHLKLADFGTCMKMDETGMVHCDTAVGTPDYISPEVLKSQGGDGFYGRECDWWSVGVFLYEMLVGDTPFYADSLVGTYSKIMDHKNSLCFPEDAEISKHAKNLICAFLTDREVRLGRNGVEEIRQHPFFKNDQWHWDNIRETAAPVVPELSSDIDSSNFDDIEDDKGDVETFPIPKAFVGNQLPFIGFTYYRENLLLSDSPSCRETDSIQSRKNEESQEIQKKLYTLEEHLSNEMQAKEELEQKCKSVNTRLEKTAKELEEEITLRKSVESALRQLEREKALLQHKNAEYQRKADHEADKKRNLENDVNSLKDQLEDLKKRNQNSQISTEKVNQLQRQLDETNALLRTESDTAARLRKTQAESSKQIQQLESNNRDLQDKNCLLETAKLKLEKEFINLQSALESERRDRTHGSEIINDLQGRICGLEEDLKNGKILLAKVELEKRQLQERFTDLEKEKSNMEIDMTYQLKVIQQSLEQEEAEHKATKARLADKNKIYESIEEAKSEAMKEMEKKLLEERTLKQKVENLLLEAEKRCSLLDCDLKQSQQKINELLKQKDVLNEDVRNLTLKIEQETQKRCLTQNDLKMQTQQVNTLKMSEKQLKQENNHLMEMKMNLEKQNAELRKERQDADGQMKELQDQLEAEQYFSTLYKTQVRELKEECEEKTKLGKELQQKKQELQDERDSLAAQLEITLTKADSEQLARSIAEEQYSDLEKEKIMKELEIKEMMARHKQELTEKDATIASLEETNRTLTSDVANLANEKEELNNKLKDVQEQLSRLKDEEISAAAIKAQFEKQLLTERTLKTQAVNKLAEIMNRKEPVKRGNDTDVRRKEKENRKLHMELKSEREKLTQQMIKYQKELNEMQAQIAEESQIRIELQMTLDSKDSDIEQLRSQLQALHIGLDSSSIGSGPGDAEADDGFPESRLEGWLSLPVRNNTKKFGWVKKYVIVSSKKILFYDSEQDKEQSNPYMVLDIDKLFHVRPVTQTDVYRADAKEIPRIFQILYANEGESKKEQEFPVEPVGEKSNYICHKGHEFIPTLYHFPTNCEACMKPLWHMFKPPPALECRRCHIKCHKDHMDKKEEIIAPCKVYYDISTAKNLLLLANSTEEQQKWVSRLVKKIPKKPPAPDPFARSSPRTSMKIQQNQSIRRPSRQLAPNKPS

| SMILES | pIC50 |
| --- | --- |
| C=CC[C@@H](N)[C@H]1CC[C@H](C(=O)Nc2ccncc2)CC1 | 5.72 |
| CCCCCCCCN(N)[C@H]1CC[C@H](C(=O)Nc2ccncc2)CC1 | 5.19 |

Same assay, conditions: concentration not given here

| SMILES | inhibition [%] |
| --- | --- |
| CC(C)CCN(N)[C@H]1CC[C@H](C(=O)Nc2ccncc2)CC1 | 43 |
| NN(CCc1ccccc1)[C@H]1CC[C@H](C(=O)Nc2ccncc2)CC1 | 46 |
| CC(C)CCN(N)[C@H]1CC[C@@H](C(=O)Nc2ccncc2)CC1 | 13 |
| CC(C)N(N)[C@H]1CC[C@H](C(=O)Nc2ccncc2)CC1 | 45 |
| C=CCC(NC)[C@H]1CC[C@H](C(=O)Nc2ccncc2)CC1 (stereo partly drawn) | 45 |
| CC(C)N(N)[C@H]1CC[C@@H](C(=O)Nc2ccncc2)CC1 | 25 |
| C=CC[C@@H](N)[C@H]1CC[C@H](C(=O)Nc2ccncc2)CC1 | 81 |
| C=CC[C@H](N)[C@H]1CC[C@H](C(=O)Nc2ccncc2)CC1 | 63 |
| CCCN(N)[C@H]1CC[C@@H](C(=O)Nc2ccncc2)CC1 | 19 |
| NN(Cc1ccccc1)[C@H]1CC[C@H](C(=O)Nc2ccncc2)CC1 | 61 |
| C=CCC(N)[C@H]1CC[C@H](C(=O)Nc2ncnc3[nH]cnc23)CC1 (stereo partly drawn) | 0 |
| NN(CC1CCCCC1)[C@H]1CC[C@H](C(=O)Nc2ccncc2)CC1 | 40 |
| CN(N)[C@H]1CC[C@H](C(=O)Nc2ccncc2)CC1 | 63 |
| CCCN(N)[C@H]1CC[C@H](C(=O)Nc2ccncc2)CC1 | 45 |
| CN(N)[C@H]1CC[C@@H](C(=O)Nc2ccncc2)CC1 | 33 |
| NN(Cc1ccc(OCc2ccccc2)cc1)[C@H]1CC[C@H](C(=O)Nc2ccncc2)CC1 | 59 |
| NN(Cc1ccccc1)[C@H]1CC[C@@H](C(=O)Nc2ccncc2)CC1 | 32 |
| CCCCCCCCN(N)[C@H]1CC[C@H](C(=O)Nc2ccncc2)CC1 | 53 |
| NN(C/C=C/c1ccccc1)[C@H]1CC[C@H](C(=O)Nc2ccncc2)CC1 | 49 |
| C=CCC(NCc1ccccc1)[C@H]1CC[C@H](C(=O)Nc2ccncc2)CC1 (stereo partly drawn) | 44 |
| NN(CC(c1ccccc1)c1ccccc1)[C@H]1CC[C@H](C(=O)Nc2ccncc2)CC1 | 45 |
